We go through five molecules from patent US20100087493A1, “METHOD FOR IMPROVING THE PHARMACOKINETICS OF DRUGS METABOLIZED BY UGT2B10” (priority 2007, published 2010).

Read-outs that look alike come from different tables or passages of the source.

The target in one series is UGT1A4 (Homo sapiens, UniProt P22310). Put plainly: biochemical. The protocol:
(§1) For the purpose of identifying a compound which acts as UGT2B10 modulator, recombinant cells that express UGT2B10 are prepared as described above. The cells expressing UGT2B10 are suspended in water and homogenized using known procedures. The incubation mixture is prepared by mixing recombinant UGT2B10 homogenate and uridine-5-diphosphoglucuronic acid (UDP-GA) as a glucuronic acid source in a suitable buffer such as phosphate buffer pH 7.4. […] The reaction is terminated as described above. Following centrifugation, the supernatants are analyzed and quantified for the presence of glucuronidated derivative of the substrate as described above. The UGT2B10 enzyme activity towards the substrate, in the absence and presence of the modulator, is calculated as the amount of glucuronide formed (pmol) divided by incubation time (min) and protein amount (mg/incubation). The effect of the modulator, inhibition or activation, on the enzyme activity towards the substrate is calculated as % enzyme activity at each modulator concentration compared to the enzyme activity measured in the absence of the modulator. IC50, inhibitor concentration that inhibits the activity by 50%, is used as the measure of the inhibitory effect, and the activation effect is calculated as % increase in enzyme activity. […]
(§2) The samples were analyzed by high-performance liquid chromatography-mass spectrometry (HPLC-MS).

In series [1] the target is T1, Recombinant human UGT2B10 (Homo sapiens, UniProt P36537).
T1 sequence (P36537 24-528): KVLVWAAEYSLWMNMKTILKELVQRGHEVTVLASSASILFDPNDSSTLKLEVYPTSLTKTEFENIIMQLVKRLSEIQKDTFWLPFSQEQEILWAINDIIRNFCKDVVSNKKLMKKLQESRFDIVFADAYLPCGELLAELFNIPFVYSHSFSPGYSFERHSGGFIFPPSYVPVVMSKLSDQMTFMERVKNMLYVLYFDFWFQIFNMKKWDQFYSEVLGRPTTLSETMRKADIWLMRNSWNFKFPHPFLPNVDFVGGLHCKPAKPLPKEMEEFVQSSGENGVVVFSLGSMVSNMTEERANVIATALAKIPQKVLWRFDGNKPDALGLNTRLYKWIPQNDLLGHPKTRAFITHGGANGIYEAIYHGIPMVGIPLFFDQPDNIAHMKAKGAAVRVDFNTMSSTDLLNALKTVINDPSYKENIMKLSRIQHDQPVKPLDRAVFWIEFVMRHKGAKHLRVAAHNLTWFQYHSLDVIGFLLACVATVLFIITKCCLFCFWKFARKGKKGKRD
Kind of series: biochemical. The protocol:
as §1, §2

Series [2] concerns the target T1, Recombinant human UGT2B10. The procedure:
For the purpose of identifying compounds which are directly metabolized by UGT2B10, recombinant cells that express UGT2B10 are prepared according to known methods. For example, recombinant UGT2B10 can be expressed in baculovirus-infected insect cells as described e.g. in Kurkela, M. et al., Journal of Biological Chemistry, 278(6), 3536-3544, 2003. The cells expressing UGT2B10 are suspended in water and homogenized using known procedures. Incubation mixture is prepared by mixing recombinant UGT2B10 homogenate and uridine-5-diphospho-glucuronic acid (UDP-GA) as a glucuronic acid source in a suitable buffer such as phosphate buffer pH 7.4. […] The reaction is terminated by protein precipitation, e.g. by addition of trifluoroacetic acid, or acetonitrile if the formed N-glucuronide is expected to be acid-labile, and cooling. Following centrifugation, the supernatants are analysed for the presence of glucuronidated derivative of the test compound, wherein any suitable analyzing method can be used. High pressure liquid chromatography followed by mass spectrometry is the preferred method. The glucuronides are quantified using authentic glucuronide standards or another suitable methods such as substrate depletion. The enzyme activity of UGT2B10 towards the tested compound is calculated as the amount of glucuronide formed (pmol) divided by incubation time (min) and protein amount (mg/incubation). Example 1 of the present application describes a procedure suitable for identifying compounds that are glucuronidated by UGT2B10.
Recombinant human UGT2B10 were produced in baculovirus-infected insect cells and used as cell homogenate after suspending the cells with water. The glucuronidation rates were determined by incubating the substrates, nicotine and cotinine, with the enzyme UGT2B10 using uridine-5′-diphosphoglucuronic acid (UDP-GA) as a cofactor. The reaction mixtures were incubated at +37° C. for 1-2 hours. The samples were analyzed by high-performance liquid chromatography-mass spectrometry (HPLC-MS). The formed glucuronides were quantified using authentic glucuronide standards. The enzyme activity of UGT2B10 towards the tested compound was calculated as pmol glucuronide formed divided by incubation time (min) and protein amount (mg/incubation).

The next series is described as follows: in vitro. Particulars: human, human liver microsomes. The protocol: The reaction is terminated as described above.
The reaction mixtures were incubated at +37° C. for 1-2 hours. The samples were analyzed by high-performance liquid chromatography-mass spectrometry (HPLC-MS).

In a further series the target is T2, UGT2B10 versus UGT1A4 (Homo sapiens, UniProt P36537).
T2 construct: made in house; host or cells: baculovirus-infected insect cells (used as cell homogenate)
T2 sequence (P36537 24-528): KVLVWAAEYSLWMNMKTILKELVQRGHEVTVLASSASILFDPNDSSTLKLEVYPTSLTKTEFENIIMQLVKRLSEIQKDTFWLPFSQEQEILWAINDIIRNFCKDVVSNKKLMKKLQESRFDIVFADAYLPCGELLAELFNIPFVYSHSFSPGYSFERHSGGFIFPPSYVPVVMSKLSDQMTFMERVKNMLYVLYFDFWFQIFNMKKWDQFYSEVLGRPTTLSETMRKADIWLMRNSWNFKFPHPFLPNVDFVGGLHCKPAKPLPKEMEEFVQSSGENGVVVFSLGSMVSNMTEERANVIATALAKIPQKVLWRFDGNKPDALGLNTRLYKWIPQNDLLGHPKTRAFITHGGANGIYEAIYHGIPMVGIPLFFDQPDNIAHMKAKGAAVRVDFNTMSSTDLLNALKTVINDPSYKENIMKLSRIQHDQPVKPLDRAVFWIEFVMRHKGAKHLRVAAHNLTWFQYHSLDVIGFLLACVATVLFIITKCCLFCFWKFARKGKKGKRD
Kind of series: Km of nicotine glucuronidation, UGT2B10. The class given is in vitro ADME. Conditions: read-out: Km for UGT2B10 fold less compared to UGT1A4 (selectivity). From the text: (§3) The reaction is terminated as described above. […] 1.1 (SPSS Inc., Chicago, Ill.).
(§4) 1.1 (SPSS Inc., Chicago, Ill.) software.

Substrate in series [3]: CN1CCCC1c1cccnc1
Kind of series: Km of nicotine glucuronidation, UGT2B10. The class given is in vitro ADME, human. Particulars: other: nicotine glucuronidation, 0.002-2 mM, cell homogenate; pH 7.4; 37.0 °C.
Text: as §3, §4

Substrate in series [4]: CN1CCCC1c1cccnc1
Put plainly: Km of nicotine glucuronidation, UGT1A4. The class given is in vitro ADME, human. Conditions: other: nicotine glucuronidation, 0.002-2 mM, microsomal membranes; pH 7.4; 37.0 °C.
Text: as §3, §4

`Cc1cccc(C(C)c2cnc[nH]2)c1C` (stereo in doubt) [Levomedetomidine, (S)-4-[1-(2,3-dimethylphenyl)-ethyl]-3H-imidazole]: the IC50 (as a rule, the concentration that gives 50% inhibition) against UGT1A4 is > 1000 µM; in series [1] it was 13 µM.

In the case of `CN1C(=O)CC[C@H]1c1cccnc1` [Cotinine, cotinine], in series [2] (human), the “substrate for UGT2B10” value is listed as “substrates for UGT2B10”. Moreover, the UGT2B10 activity in series [2] (human, 2 mM) is recorded as 12.7 pmol/min/mg prot.

In the case of `CN1CCCC1c1cccnc1` (stereo not shown) [Nicotine, nicotine], the Michaelis-Menten constant (Km) (in general, the concentration of substrate that gives half-maximal velocity) in the series “in vitro” was 330 µM. For the same molecule, the UGT2B10 activity in series [2] (in vitro, 2 mM substrate concentration, cell homogenate) was 2.9 pmol/min/mg prot. The “substrate for UGT2B10” value in series [2] (in vitro, cell homogenate) is listed as “substrates for UGT2B10”. Also, the selectivity ratio at UGT2B10 versus UGT1A4 stood at 8.

B1: Recombinant human UGT2B10 (Homo sapiens) (protein)
chain: KVLVWAAEYSLWMNMKTILKELVQRGHEVTVLASSASILFDPNDSSTLKLEVYPTSLTKTEFENIIMQLVKRLSEIQKDTFWLPFSQEQEILWAINDIIRNFCKDVVSNKKLMKKLQESRFDIVFADAYLPCGELLAELFNIPFVYSHSFSPGYSFERHSGGFIFPPSYVPVVMSKLSDQMTFMERVKNMLYVLYFDFWFQIFNMKKWDQFYSEVLGRPTTLSETMRKADIWLMRNSWNFKFPHPFLPNVDFVGGLHCKPAKPLPKEMEEFVQSSGENGVVVFSLGSMVSNMTEERANVIATALAKIPQKVLWRFDGNKPDALGLNTRLYKWIPQNDLLGHPKTRAFITHGGANGIYEAIYHGIPMVGIPLFFDQPDNIAHMKAKGAAVRVDFNTMSSTDLLNALKTVINDPSYKENIMKLSRIQHDQPVKPLDRAVFWIEFVMRHKGAKHLRVAAHNLTWFQYHSLDVIGFLLACVATVLFIITKCCLFCFWKFARKGKKGKRD
notes: made in house; host or cells: baculovirus-infected insect cells (used as cell homogenate)
With B1, in series [3], the Km was 290 µM.

B2: recombinant human UGT1A4 (Homo sapiens) (protein)
chain: GKVLVVPTDGSPWLSMREALRELHARGHQAVVLTPEVNMHIKEEKFFTLTAYAVPWTQKEFDRVTLGYTQGFFETEHLLKRYSRSMAIMNNVSLALHRCCVELLHNEALIRHLNATSFDVVLTDPVNLCGAVLAKYLSIPAVFFWRYIPCDLDFKGTQCPNPSSYIPKLLTTNSDHMTFLQRVKNMLYPLALSYICHTFSAPYASLASELFQREVSVVDLVSYASVWLFRGDFVMDYPRPIMPNMVFIGGINCANGKPLSQEFEAYINASGEHGIVVFSLGSMVSEIPEKKAMAIADALGKIPQTVLWRYTGTRPSNLANNTILVKWLPQNDLLGHPMTRAFITHAGSHGVYESICNGVPMVMMPLFGDQMDNAKRMETKGAGVTLNVLEMTSEDLENALKAVINDKSYKENIMRLSSLHKDRPVEPLDLAVFWVEFVMRHKGAPHLRPAAHDLTWYQYHSLDVIGFLLAVVLTVAFITFKCCAYGYRKCLGKKGRVKKAHKSKTH
notes: made in house; host or cells: baculovirus-infected insect cells (microsomal membranes isolated)
Take B2: the Michaelis-Menten constant (Km) in series [4] is 2400 µM.
